Article PMC4052943 (BioMed Research International, 2014)
Like-named read-outs stand apart in the source and are kept apart here.

What was measured:
H1299 cells = assay: MTT cell proliferation assay; assay type: cell-based; conditions: Homo sapiens, NCI-H1299; H1299; 50 μg/mL; 48 h; read-out: inhibition of cells (antiproliferative activity, MTT)
Protocol: (§1) Inhibition of cell proliferation by PC and EA was measured with the MTT assay. Human lung cancer A549 and H1299 cells were obtained from ATCC (Manassas, VA, USA) and maintained in DMEM supplemented with 10% fetal calf serum (FCS), 1% penicillin/streptomycin. Cells were plated in 96-well culture plates (5 × 10^3 cells/well). After 24 h incubation, cells were treated with vehicle alone (0.1% DMSO) and PC and EA (12.5–200 μg/mL) extracts for 48 h. Then, the culture medium was replaced by 100 μL of fresh medium containing 0.5 mg/mL MTT, and the plates were incubated for 2 h at 37°C. The medium was then removed and was replaced by 200 μL of DMSO to solubilize the converted purple dye. The absorbance was measured with a spectrophotometer microplate reader at a wavelength of 570 nm.

A549 cells = assay: MTT cell proliferation assay; assay type: cell-based; conditions: Homo sapiens; A549; 50 μg/mL; 48 h; read-out: inhibition of cells (antiproliferative activity, MTT)
Protocol: as §1

[1] = tested on: Salmonella typhimurium TA102; assay: Ames antimutagenicity assay (preincubation); conditions: for inhibition at 50 µM / inhibition at 100 µM / inhibition at 250 µM / inhibition at 500 µM: Salmonella enterica, TYPHIMURIUM;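 on all read-outs here: compound and mutagen preincubated 30 min at 37 °C before adding bacteria, His+ revertant colonies counted after 48 h at 37 °C, inhibition relative to mutagen-alone minus negative-control revertants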
Protocol: (§2) In the preincubation experiment, test compounds and mutagen, each having a volume of 0.1 mL of varying concentrations, were preincubated at 37°C for 30 min and then 0.1 mL of 1 × 10^7 CFU/mL density of the bacterial culture was added, followed by the addition of 2.5 mL of top agar at 45°C (containing 0.5% NaCl and 0.6% agar) supplemented with 0.5 mM histidine-biotin. […] The combined solutions were vortexed and poured onto minimal glucose plates (40% glucose solution and Vogel Bonner medium). The plates were incubated at 37°C for 48 h and the numbers of histidine-independent revertants colonies were scored.
(§3) Survival of the bacteria was routinely monitored for each experiment. Parallel controls were run with compounds alone at all concentrations to test the possible toxicity. The concentrations of the test samples for investigating the antimutagenicity were 50, 100, 200, and 500 μM. […] All the test samples and mutagens were dissolved in DMSO (final conc., 0.01%). […] Plates were set up in triplicate for each concentration and the entire experiment was repeated three times. Inhibition of mutagenicity was expressed as percentage decrease of reverse mutation and calculated as (1) Percent inhibition=[(a−b)/(a−c)]×100, where a = number of histidine revertants induced by mutagen, b = number of histidine revertants induced by mutagen in the presence of test compound, and c = number of revertants induced in negative control.

[2] = tested on: BP-induced DNA adducts (rat liver microsomes, st-DNA); assay: Microsomal BP-DNA adducts, 32P-postlabeling; assay type: biochemical; conditions: for BP-induced DNA adducts: BP 1 μM, rat liver microsomes, st-DNA
Protocol: st-DNA (300 μg/mL) was preincubated with 50 mM Tris-HCl (pH 7.5), 1 mM MgCl2, 2.5 mM glucose-6-phosphate, 1 U/mL G6PDH, 0.5 mM NADP+, and α-naphthoflavone-induced rat liver microsomal proteins (1 mg/mL) in 1 mL for 10 min, in the presence of vehicle alone and PC and EA at 20 and 40 μM. […] The incubation was continued for another 30 min at 37°C and then reaction was terminated by the addition of EDTA and centrifugation (9,000 g; 10 min). DNA was isolated from the supernatant by removal of RNA and proteins by digestions with RNases A and T1 and proteinase K and a series of extractions with phenol, phenol: Sevag (chloroform : isoamyl alcohol, 24 : 1), and Sevag, followed by precipitation of the DNA with ethanol. The DNA concentration was estimated spectrophotometrically.
DNA adducts were analyzed by ^32P-postlabeling as described earlier. Briefly, 10 μg of DNA was digested with micrococcal nuclease and spleen phosphodiesterase (MN/SPD). Before further treatment with nuclease P1 to enrich DNA adducts, an aliquot was removed for evaluation of normal nucleotide levels. DNA adducts and normal nucleotides were labelled with [γ-^32P]ATP and T4 polynucleotide kinase. Labelled adducts were separated by multidirectional polyethyleneimine (PEI)-cellulose TLC using the following solvents: D1, 1.0 M sodium phosphate, pH 6.0; D3, 4 M lithium formate/7 M urea, pH 3.5; D4, 4 M ammonium hydroxide/isopropanol (1 : 0.9); and D5, 1.7 M sodium phosphate, pH 6.0. Normal nucleotides were resolved in 180 mM sodium phosphate, pH 6.0, by one-directional PEI-cellulose TLC. DNA adducts and normal nucleotides were detected and quantified by Packard InstantImager.

[3] = tested on: Salmonella typhimurium TA100; assay: Ames antimutagenicity assay (preincubation); conditions: for inhibition at 50 µM / inhibition at 100 µM / inhibition at 250 µM / inhibition at 500 µM: Salmonella enterica, TYPHIMURIUM;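 on all read-outs here: compound and mutagen preincubated together 30 min at 37°C before bacteria added, then plates incubated 48 h at 37°C, inhibition relative to mutagen-alone revertants after subtracting the negative control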
Protocol: as §2, §3

O=c1oc2c(O)c(O)cc3c(=O)oc4c(O)c(O)cc1c4c23 [Ellagic acid, ellagic acid]
inhibition at 50 µg/mL (H1299 cells): 34% | inhibition at 50 µg/mL (A549 cells): 39% | inhibition at 50 µM ([1]; read-out: % inhibition of mutagenicity, TA 102, 50 μM + 2AF, S9): 17.5% | inhibition at 50 µM ([1]; read-out: % inhibition of mutagenicity, TA 102, 50 μM + BP, S9): 11.5% | inhibition at 50 µM ([1]; read-out: % inhibition of mutagenicity, TA 102, 50 μM + MMS, no S9): 18.5% | inhibition at 50 µM ([1]; read-out: % inhibition of mutagenicity, TA 102, 50 μM + NaN3, no S9): 21.9% | inhibition at 100 µM ([1]; read-out: % inhibition of mutagenicity, TA 102, 100 μM + 2AF, S9): 45.9% | inhibition at 100 µM ([1]; read-out: % inhibition of mutagenicity, TA 102, 100 μM + BP, S9): 23.6% | inhibition at 100 µM ([1]; read-out: % inhibition of mutagenicity, TA 102, 100 μM + MMS, no S9): 30.3% | inhibition at 100 µM ([1]; read-out: % inhibition of mutagenicity, TA 102, 100 μM + NaN3, no S9): 40.3% | inhibition at 250 µM ([1]; read-out: % inhibition of mutagenicity, TA 102, 250 μM + BP, S9): 46.6% | inhibition at 250 µM ([1]; read-out: % inhibition of mutagenicity, TA 102, 250 μM + MMS, no S9): 44.3% | inhibition at 250 µM ([1]; read-out: % inhibition of mutagenicity, TA 102, 250 μM + NaN3, no S9): 50.7% | inhibition at 500 µM ([1]; read-out: % inhibition of mutagenicity, TA 102, 500 μM + 2AF, S9): 89% | inhibition at 500 µM ([1]; read-out: % inhibition of mutagenicity, TA 102, 500 μM + BP, S9): 83.7% | inhibition at 500 µM ([1]; read-out: % inhibition of mutagenicity, TA 102, 500 μM + MMS, no S9): 72.4% | inhibition at 500 µM ([1]; read-out: % inhibition of mutagenicity, TA 102, 500 μM + NaN3, no S9): 62.3% | Number of His+ revertants colonies/plate ([1]; TA 102, 50 μM + 2AF, S9): 1276.0 ± 38.0 colonies/plate | Number of His+ revertants colonies/plate ([1]; TA 102, 50 μM + BP, S9): 653.0 ± 34.7 colonies/plate | Number of His+ revertants colonies/plate ([1]; TA 102, 50 μM + MMS, no S9): 1071.0 ± 16.7 colonies/plate | Number of His+ revertants colonies/plate ([1]; TA 102, 50 μM + NaN3, no S9): 345.3 ± 26.7 colonies/plate | Number of His+ revertants colonies/plate ([1]; TA 102, 100 μM + 2AF, S9): 924.0 ± 25.3 colonies/plate | Number of His+ revertants colonies/plate ([1]; TA 102, 100 μM + BP, S9): 595.0 ± 24.1 colonies/plate | Number of His+ revertants colonies/plate ([1]; TA 102, 100 μM + MMS, no S9): 956.0 ± 19.6 colonies/plate | Number of His+ revertants colonies/plate ([1]; TA 102, 100 μM + NaN3, no S9): 328.0 ± 28.2 colonies/plate | Number of His+ revertants colonies/plate ([1]; TA 102, 250 μM + BP, S9): 514.0 ± 21.4 colonies/plate | Number of His+ revertants colonies/plate ([1]; TA 102, 250 μM + MMS, no S9): 810.0 ± 19.1 colonies/plate | Number of His+ revertants colonies/plate ([1]; TA 102, 250 μM + NaN3, no S9): 308.0 ± 23.6 colonies/plate | Number of His+ revertants colonies/plate ([1]; TA 102, 500 μM + 2AF, S9): 431.0 ± 13.6 colonies/plate | Number of His+ revertants colonies/plate ([1]; TA 102, 500 μM + BP, S9): 366.0 ± 25.0 colonies/plate | Number of His+ revertants colonies/plate ([1]; TA 102, 500 μM + MMS, no S9): 506.0 ± 13.5 colonies/plate | Number of His+ revertants colonies/plate ([1]; TA 102, 500 μM + NaN3, no S9): 288.3 ± 19.2 colonies/plate | BP-induced DNA adducts ([2]; 20 μM test compound): 58.6 ± 2.8 DNA adducts/10^8 nucleotides | BP-induced DNA adducts ([2]; 40 μM test compound): 50.9 ± 8.1 DNA adducts/10^8 nucleotides | inhibition of BP-induced DNA adducts ([2]; 40 μM, BP with rat liver microsomes, cofactors, DNA): 77% | inhibition at 50 µM ([3]; read-out: % inhibition of mutagenicity, TA 100, 50 μM + 2AF, S9): 22.5% | inhibition at 50 µM ([3]; read-out: % inhibition of mutagenicity, TA 100, 50 μM + BP, S9): 21.8% | inhibition at 50 µM ([3]; read-out: % inhibition of mutagenicity, TA 100, 50 μM + MMS, no S9): 8% | inhibition at 50 µM ([3]; read-out: % inhibition of mutagenicity, TA 100, 50 μM + NaN3, no S9): 11.4% | inhibition at 100 µM ([3]; read-out: % inhibition of mutagenicity, TA 100, 100 μM + 2AF, S9): 46.1% | inhibition at 100 µM ([3]; read-out: % inhibition of mutagenicity, TA 100, 100 μM + BP, S9): 42.8% | inhibition at 100 µM ([3]; read-out: % inhibition of mutagenicity, TA 100, 100 μM + MMS, no S9): 26.4% | inhibition at 100 µM ([3]; read-out: % inhibition of mutagenicity, TA 100, 100 μM + NaN3, no S9): 25.6% | inhibition at 250 µM ([3]; read-out: % inhibition of mutagenicity, TA 100, 250 μM + BP, S9): 70% | inhibition at 250 µM ([3]; read-out: % inhibition of mutagenicity, TA 100, 250 μM + MMS, no S9): 45.1% | inhibition at 250 µM ([3]; read-out: % inhibition of mutagenicity, TA 100, 250 μM + NaN3, no S9): 46.4% | inhibition at 500 µM ([3]; read-out: % inhibition of mutagenicity, TA 100, 500 μM + 2AF, S9): 83.8% | inhibition at 500 µM ([3]; read-out: % inhibition of mutagenicity, TA 100, 500 μM + BP, S9): 88.9% | inhibition at 500 µM ([3]; read-out: % inhibition of mutagenicity, TA 100, 500 μM + MMS, no S9): 65.3% | inhibition at 500 µM ([3]; read-out: % inhibition of mutagenicity, TA 100, 500 μM + NaN3, no S9): 65.9% | Number of His+ revertants colonies/plate ([3]; TA 100, 50 μM + 2AF, S9): 426.0 ± 18.6 colonies/plate | Number of His+ revertants colonies/plate ([3]; TA 100, 50 μM + BP, S9): 580.3 ± 25.6 colonies/plate | Number of His+ revertants colonies/plate ([3]; TA 100, 50 μM + MMS, no S9): 900.3 ± 16.3 colonies/plate | Number of His+ revertants colonies/plate ([3]; TA 100, 50 μM + NaN3, no S9): 340.7 ± 9.4 colonies/plate | Number of His+ revertants colonies/plate ([3]; TA 100, 100 μM + 2AF, S9): 350.0 ± 12.8 colonies/plate | Number of His+ revertants colonies/plate ([3]; TA 100, 100 μM + BP, S9): 472.3 ± 19.4 colonies/plate | Number of His+ revertants colonies/plate ([3]; TA 100, 100 μM + MMS, no S9): 754.0 ± 8.2 colonies/plate | Number of His+ revertants colonies/plate ([3]; TA 100, 100 μM + NaN3, no S9): 312.3 ± 8.4 colonies/plate | Number of His+ revertants colonies/plate ([3]; TA 100, 250 μM + BP, S9): 336.0 ± 17.6 colonies/plate | Number of His+ revertants colonies/plate ([3]; TA 100, 250 μM + MMS, no S9): 598.7 ± 14.2 colonies/plate | Number of His+ revertants colonies/plate ([3]; TA 100, 250 μM + NaN3, no S9): 266.0 ± 7.8 colonies/plate | Number of His+ revertants colonies/plate ([3]; TA 100, 500 μM + 2AF, S9): 240.7 ± 9.8 colonies/plate | Number of His+ revertants colonies/plate ([3]; TA 100, 500 μM + BP, S9): 245.7 ± 14.4 colonies/plate | Number of His+ revertants colonies/plate ([3]; TA 100, 500 μM + MMS, no S9): 420.3 ± 6.9 colonies/plate | Number of His+ revertants colonies/plate ([3]; TA 100, 500 μM + NaN3, no S9): 210.3 ± 12.4 colonies/plate
